Assays:
Male Sprague-Dawley rats [1] = experiment: Rat Carrageenan-induced Analgesia Test; assay type: in vivo; conditions: po, 3 h, read-out: ANALGESIA % Inhibition @ 10mg/kg body weight, rats dosed orally, hyperalgesic foot withdrawal, thermal stimulation three hours after carrageenan
Male Sprague-Dawley rats [2] = experiment: Rat Carrageenan Foot Pad Edema Test; assay type: in vivo; conditions: po, 3 h, rats dosed orally, 10mg/kg body weight, one hour before carrageenan, foot volume three hours after carrageenan, read-out: RAT PAW EDEMA % Inhibition @ 10mg/kg body weight
Experimental: Male Sprague-Dawley rats were selected in each group so that the average body weight was as close as possible. Rats were fasted with free access to water for over sixteen hours prior to the test. The rats were dosed orally (1 mL) with compounds suspended in vehicle containing 0.5% methylcellulose and .025% surfactant, or with vehicle alone. One hour later a subplantar injection of 0.1 mL of 1% solution of carrageenan/sterile 0.9% saline was administered and the volume of the injected foot was measured with a displacement plethysmometer connected to a pressure transducer with a digital indicator. Three hours after the injection of the carrageenan, the volume of the foot was again measured.

COX-1 = COX-1 (Homo sapiens, UniProt P23219); conditions: read-out: COX I ID50 µM
Sequence of COX-1 (P23219 24-599): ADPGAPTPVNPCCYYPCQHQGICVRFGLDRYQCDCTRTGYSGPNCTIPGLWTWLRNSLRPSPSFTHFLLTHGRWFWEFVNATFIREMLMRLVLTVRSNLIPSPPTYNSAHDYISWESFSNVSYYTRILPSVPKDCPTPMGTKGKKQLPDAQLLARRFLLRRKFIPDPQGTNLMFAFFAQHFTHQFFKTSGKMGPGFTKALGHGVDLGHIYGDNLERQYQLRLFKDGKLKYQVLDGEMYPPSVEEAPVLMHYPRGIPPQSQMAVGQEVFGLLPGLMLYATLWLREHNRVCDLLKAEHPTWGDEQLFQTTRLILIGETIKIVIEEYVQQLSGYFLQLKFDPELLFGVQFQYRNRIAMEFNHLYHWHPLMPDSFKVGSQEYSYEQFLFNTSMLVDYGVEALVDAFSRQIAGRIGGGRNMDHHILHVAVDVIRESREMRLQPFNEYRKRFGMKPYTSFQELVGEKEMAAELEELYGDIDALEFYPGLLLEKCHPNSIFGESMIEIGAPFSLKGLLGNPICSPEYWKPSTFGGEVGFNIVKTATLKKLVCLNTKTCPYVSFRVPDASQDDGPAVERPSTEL

Row | Compound | inhibition in vivo at 10 mg/kg (Male Sprague-Dawley rats [1]) [%] | inhibition in vivo at 10 mg/kg (Male Sprague-Dawley rats [2]) [%] | IC50 (COX-1) [µM]
1 | CS(=O)(=O)c1ccc(C2=C(c3ccc(F)cc3)CC3(CC3)C2)cc1 [Example 1, 5-(4-Fluorophenyl)-6-[4-(methylsulfonyl)phenyl]spiro[2.4]hept-5-ene] | 15 | 32 | 
2 | NS(=O)(=O)c1ccc(C2=C(c3ccc(F)cc3)CC3(CC3)C2)cc1 [Example 2, 4-[6-(4-Fluorophenyl)spiro[2.4]hept-5-en-5-yl]benzenesulfonamide] | 34 | 57 | 
3 | CS(=O)(=O)c1ccc(C2=C(c3ccc(F)cc3)CC3(CCC3)C2)cc1 [Example 3, 6-(4-Fluorophenyl)-7-[4-(methylsulfonyl)phenyl]spiro[3.4]oct-6-ene] |  | 24 | 
4 | NS(=O)(=O)c1ccc(C2=C(c3ccc(F)cc3)CC3(CCC3)C2)cc1 [Example 4, 4-[7-(4-Fluorophenyl)spiro[3.4]oct-6-en-6-yl]benzenesulfonamide] |  | 17 | 
5 | COc1ccc(C2=C(c3ccc(S(C)(=O)=O)cc3)CC3(CC3)C2)cc1Cl [Example 6, 5-(3-Chloro-4-methoxyphenyl)-6-[4-(methylsulfonyl)phenyl)spiro[2.4]hept-5-ene] | 7 | 21 | 
6 | COc1ccc(C2=C(c3ccc(S(N)(=O)=O)cc3)CC3(CC3)C2)cc1Cl [Example 7, 4-[6-(3-Chloro-4-methoxyphenyl)spiro[2.4]hept-5-en-5-yl]benzenesulfonamide] | 18 | 20 | 
7 | COc1ccc(C2=C(c3ccc(S(C)(=O)=O)cc3)CC3(CC3)C2)cc1F [Example 8, 5-(3-Fluoro-4-methoxyphenyl)-6-[4-(methylsulfonyl)phenyl]spiro[2.4]hept-5-ene] | 8 | 15 | 
8 | COc1ccc(C2=C(c3ccc(S(N)(=O)=O)cc3)CC3(CC3)C2)cc1F [Example 9, 4-[6-(3-Fluoro-4-methoxyphenyl)spiro[2.4]hept-5-en-5-yl]benzenesulfonamide] | 17 | 15 | 
9 | CS(=O)(=O)c1ccc(C2=C(c3ccc(OC(F)(F)F)cc3)CC3(CC3)C2)cc1 [Example 14, 6-[4-(Methylsulfonyl)phenyl]-5-(4-trifluoromethoxyphenyl)spiro[2.4]hept-5-ene] |  | 18 | 
10 | COc1ccc(C2=C(c3ccc(S(C)(=O)=O)cc3)CC3(CC3)C2)cc1Br [Example 16, 5-(3-Bromo-4-methoxyphenyl)-6-[4-(methylsulfonyl)phenyl]spiro[2.4]hept-5-ene] |  | 6 | 
11 | CS(=O)(=O)c1ccc(C2=C(c3ccc(C(F)(F)F)cc3)CC3(CC3)C2)cc1 [Example 19, 6-[4-(Methylsulfonyl)phenyl)-5-(4-trifluoromethylphenyl)spiro[2.4]hept-5-ene] | 9 | 11 | 
12 | COc1c(Cl)cc(C2=C(c3ccc(S(C)(=O)=O)cc3)CC3(CC3)C2)cc1Cl [Example 20, 5-(3,5-Dichloro-4-methoxyphenyl)-6-[4-(methylsulfonyl)phenyl]spiro[2.4]hept-5-ene] | 28 | 24 | 
13 | CS(=O)(=O)c1ccc(C2=C(c3ccc(F)c(Cl)c3)CC3(CC3)C2)cc1 [Example 22, 5-(3-Chloro-4-fluorophenyl)-6-[4-(methylsulfonyl)phenyl]spiro[2.4]hept-5-ene] | 10 | 21 | 6
14 | NS(=O)(=O)c1ccc(C2=C(c3ccc(C(F)(F)F)cc3)CC3(CC3)C2)cc1 [Example 25, 4-[6-(4-Trifluoromethylphenyl)spiro[2.4]hept-5-en-5-yl]benzenesulfonamide] | 22 | 34 | 
15 | CS(=O)(=O)c1ccc(C2=C(c3ccc(Cl)c(Cl)c3)CC3(CC3)C2)cc1 [Example 27, 5-(3,4-Dichlorophenyl)-6-[4-(methylsulfonyl)phenyl]spiro[2.4]hept-5-ene] |  | 15 | 
16 | NS(=O)(=O)c1ccc(C2=C(c3ccc(Cl)c(Cl)c3)CC3(CC3)C2)cc1 [Example 29, 4-[6-(3,4-Dichlorophenyl)spiro[2.4]hept-5-en-5-yl]benzenesulfonamide] | 29 | 24 | 

Source: patent EP0743938B1, “SUBSTITUTED SPIRO COMPOUNDS FOR THE TREATMENT OF INFLAMMATION” (G.D. SEARLE & CO., priority 1994, dated 1995)
